Source: patent publication US20240383874A1, “BENZENE RING DERIVATIVE, AND COMPOSITION AND PHARMACEUTICAL USE THEREOF” (Xizang Haisco Pharmaceutical Co., Ltd., priority 2020, published 2024)
Structures can show the parent of a compound that is named as a salt. Where two headings read alike, the source gives them in different places.

How the values were obtained:
[1] = tested on: 22RV1 cells; test: Experiment 2 on inhibiting 22RV1 cell proliferation (7 days, CellTiter-Glo); format: cell-based; settings: 1% css-FBS phenol red-free medium, incubated with compound 7 days, read-out: IC50 values on proliferation inhibition of 22RV1 cells
Procedure, shortened: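 22RV1 cells plated at 2000/well in phenol red-free medium with 1% css-FBS and treated next day with compound for 7 days at 37 °C. Viability read by CellTiter-Glo luminescence relative to DMSO vehicle; IC50 from dose-response fit.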

[2] = Pharmacokinetic test in rats; format: in vivo; settings: rat, po; male SD rats, single dose i.g. 5 mg/kg, plasma, 0-24 h
Experimental: Test objective: in this test, a single dose of test compounds was administered to SD rats intragastrically, and the concentrations of the test compounds in plasma of the rats were measured to evaluate pharmacokinetic characteristics of the test compounds in the rats.
Test animals: male SD rats, 200-250 g, 6-8 weeks old, 3 rats/compound, purchased from Chengdu Dossy Experimental Animals Co., Ltd.
Test method: on the day of the test, 3 SD rats were randomly grouped according to their body weights. The animals were fasted with water available for 12 to 14 hours one day before the administration of a test compound, and were fed 4 hours after the administration.
Sampling: before and after the administration, 0.1 mL of blood was taken from the orbits of the rats under isoflurane anesthesia, and placed in an EDTAK2 centrifuge tube. Centrifugation was carried out at 5000 rpm at 4C for […], and the plasma was collected.
Time points for plasma collection in G1 group: 0, 5 min, 15 min, 30 min, 1 h, 2 h, 4 h, 6 h, 8 h, and 24 h.
Before analysis and detection, all samples were stored at −80° C. The samples were analyzed quantitatively by LC-MS/MS.

Question: Which IC50 ([1]; Homo sapiens, 22Rv1, 168 h) does the source give for `CC(C)(c1ccc(OCc2ccnc(N3CCC(CN4CCC(C5CCN(c6ccc7c(c6)C(=O)N(C6CCC(=O)NC6=O)C7=O)CC5)CC4)CC3)n2)cc1)c1cc(Cl)cc(C#N)c1` (stereo not drawn) [Compound 37 trifluoroacetate, 3-chloro-5-(2-(4-((2-(4-((1′-(2-(2,6-dioxopiperidin-3-yl)-1,3-dioxoisoindolin-5-yl)-[4,4′-bipiperidin]-1-yl)methyl)piperidin-1-yl)pyrimidin-4-yl)methoxy)phenyl)propan-2-yl)benzonitrile] here?
Answer: 507 nM

Question: And the AUC(0-t) [2]?
Answer: 867 ± 66 ng·h/mL

Question: Which AUC(0-t) [2] does the source give for `CC(C)(c1ccc(OCc2ccnc(N3CCC4(CC3)CN(CC3CCN(c5ccc6c(c5)C(=O)N(C5CCC(=O)NC5=O)C6=O)CC3)C4)n2)cc1)c1cc(Cl)cc(C#N)c1` (stereo not drawn) [Compound 45, 3-chloro-5-(2-(4-((2-(2-((1-(2-(2,6-dioxopiperidin-3-yl)-1,3-dioxoisoindolin-5-yl)piperidin-4-yl)methyl)-2,7-diazaspiro[3.5]nonan-7-yl)pyrimidin-4-yl)methoxy)phenyl)propan-2-yl)benzonitrile] here?
Answer: 452 ± 137 ng·h/mL

Question: With `CC(C)(c1ccc(OCc2ccnc(N3CCC(CN4CCC(C5CCN(c6cc7c(cc6F)C(=O)N(C6CCC(=O)NC6=O)C7=O)CC5)CC4)CC3)n2)cc1)c1cc(Cl)cc(C#N)c1` (stereo not drawn) [Compound 78, 3-chloro-5-(2-(4-((2-(4-((1′-(2-(2,6-dioxopiperidin-3-yl)-6-fluoro-1,3-dioxoisoindolin-5-yl)-[4,4′-bipiperidin]-1-yl)methyl)piperidin-1-yl)pyrimidin-4-yl)methoxy)phenyl)propan-2-yl)benzonitrile] as the molecule, how does the AUC(0-t) [2] read?
Answer: 2350 ± 309 ng·h/mL

Question: Which IC50 ([1]; Homo sapiens, 22Rv1, 168 h) does the source give for `Cn1c(=O)n(C2CCC(=O)NC2=O)c2ccc(N3CCC(C4CCN(CC5CCN(c6nccc(COc7ccc(C(C)(C)c8cc(Cl)c(OCCCl)c(C#N)c8)cc7)n6)CC5)CC4)CC3)cc21` (stereo not drawn) [Compound 98 trifluoroacetate, 3-chloro-2-(2-chloroethoxy)-5-(2-(4-((2-(4-((1′-(1-(2,6-dioxopiperidin-3-yl)-3-methyl-2-oxo-2,3-dihydro-1H-benzo[d]imidazol-5-yl)-[4,4′-bipiperidin]-1-yl)methyl)piperidin-1-yl)pyrimidin-4-yl)methoxy)phenyl)propan-2-yl)benzonitrile] here?
Answer: 621 nM

Question: What about the AUC(0-t) [2] of the same molecule?
Answer: 492 ± 266 ng·h/mL

Question: With `[2H]C([2H])([2H])Oc1c(Cl)cc(C(C)(C)c2ccc(OCc3ccnc(N4CCC(CN5CCC(C6CCN(c7ccc8c(c7)n(C)c(=O)n8C7CCC(=O)NC7=O)CC6)CC5)CC4)n3)cc2)cc1C#N` (stereo not drawn) [Compound 99 trifluoroacetate, 3-chloro-5-(2-(4-((2-(4-((1′-(1-(2,6-dioxopiperidin-3-yl)-3-methyl-2-oxo-2,3-dihydro-1H-benzo[d]imidazol-5-yl)-[4,4′-bipiperidin]-1-yl)methyl)piperidin-1-yl)pyrimidin-4-yl)methoxy)phenyl)propan-2-yl)-2-(methoxy-d3)benzonitrile] as the molecule, how does the IC50 ([1]; Homo sapiens, 22Rv1, 168 h) read?
Answer: 427 nM

Question: And the AUC(0-t) [2]?
Answer: 541 ± 80 ng·h/mL

Question: Which results are given for `CCOc1c(Cl)cc(C(C)(C)c2ccc(OCc3ccnc(N4CCC(CN5CCC(C6CCN(c7ccc(C(=O)NC8CCC(=O)NC8=O)nc7)CC6)CC5)CC4)n3)cc2)cc1C#N` (stereo not drawn) [Compound 111 trifluoroacetate, 5-(1′-((1-(4-((4-(2-(3-chloro-5-cyano-4-ethoxyphenyl)propan-2-yl)phenoxy)methyl)pyrimidin-2-yl)piperidin-4-yl)methyl)-[4,4′-bipiperidin]-1-yl)-N-(2,6-dioxopiperidin-3-yl)picolinamide]?
Answer: IC50 ([1]; Homo sapiens, 22Rv1, 168 h): 290 nM; AUC(0-t) [2]: 574 ± 59 ng·h/mL

Question: Which IC50 ([1]; Homo sapiens, 22Rv1, 168 h) does the source give for `COc1c(Cl)cc(C(C)(C)c2ccc(OCc3ccnc(N4CCC(CN5CCC(C6CCN(c7ccc(C(=O)NC8CCC(=O)NC8=O)nc7)CC6)CC5)CC4)n3)cc2)cc1C#N` (stereo not drawn) [Compound 112 trifluoroacetate, 5-(1′-((1-(4-((4-(2-(3-chloro-5-cyano-4-methoxyphenyl)propan-2-yl)phenoxy)methyl)pyrimidin-2-yl)piperidin-4-yl)methyl)-[4,4′-bipiperidin]-1-yl)-N-(2,6-dioxopiperidin-3-yl)picolinamide] here?
Answer: 463 nM

Question: What about the AUC(0-t) [2] of the same molecule?
Answer: 827 ± 211 ng·h/mL

Question: For `Cn1c(=O)n(C2CCC(=O)NC2=O)c2cccc(C3CCN(CC4(F)CCN(C5CC6(CCN(c7nccc(COc8ccc(C(C)(C)c9cc(Cl)cc(C#N)c9)cc8)n7)CC6)C5)CC4)CC3)c21` (stereo not drawn) [Compound 115 trifluoroacetate, 3-chloro-5-(2-(4-((2-(2-(4-((4-(1-(2,6-dioxopiperidin-3-yl)-3-methyl-2-oxo-2,3-dihydro-1H-benzo[d]imidazol-4-yl)piperidin-1-yl)methyl)-4-fluoropiperidin-1-yl)-7-azaspiro[3.5]nonan-7-yl)pyrimidin-4-yl)methoxy)phenyl)propan-2-yl)benzonitrile], which IC50 ([1]; Homo sapiens, 22Rv1, 168 h) is on record?
Answer: 955 nM

Question: With `CCOc1c(Cl)cc(C(C)(C)c2ccc(OCc3ccnc(N4CCC(CN5CCC6(CC5)CN(c5ccc7c(c5)n(C)c(=O)n7C5CCC(=O)NC5=O)C6)CC4)n3)cc2)cc1C#N` (stereo not drawn) [Compound 118 trifluoroacetate, 3-chloro-5-(2-(4-((2-(4-((2-(1-(2,6-dioxopiperidin-3-yl)-3-methyl-2-oxo-2,3-dihydro-1H-benzo[d]imidazol-5-yl)-2,7-diazaspiro[3.5]nonan-7-yl)methyl)piperidin-1-yl)pyrimidin-4-yl)methoxy)phenyl)propan-2-yl)-2-ethoxybenzonitrile] as the molecule, how does the AUC(0-t) [2] read?
Answer: 686 ± 336 ng·h/mL

Question: Which AUC(0-t) [2] does the source give for `COc1c(Cl)cc(C(C)(C)c2ccc(OCc3ccnc(N4CCC(CN5CCC(C6CCN(c7ccc(N8CCC(=O)NC8=O)cc7)CC6)CC5)CC4)n3)cc2)cc1C#N` [Compound 120, 3-chloro-5-(2-(4-((2-(4-((1′-(4-(2,4-dioxotetrahydropyrimidin-1(2H)-yl)phenyl)-[4,4′-bipiperidin]-1-yl)methyl)piperidin-1-yl)pyrimidin-4-yl)methoxy)phenyl)propan-2-yl)-2-methoxybenzonitrile] here?
Answer: 1430 ± 209 ng·h/mL

Question: For `CCOc1c(Cl)cc(C(C)(C)c2ccc(OCc3ccnc(N4CC5(CCC(N6CCC(c7ccc8c(c7)n(C)c(=O)n8C7CCC(=O)NC7=O)CC6)CC5)C4)n3)cc2)cc1C#N` (stereo not drawn) [Compound 121 trifluoroacetate, 3-chloro-5-(2-(4-((2-(7-(4-(1-(2,6-dioxopiperidin-3-yl)-3-methyl-2-oxo-2,3-dihydro-1H-benzo[d]imidazol-5-yl)piperidin-1-yl)-2-azaspiro[3.5]nonan-2-yl)pyrimidin-4-yl)methoxy)phenyl)propan-2-yl)-2-ethoxybenzonitrile], which IC50 ([1]; Homo sapiens, 22Rv1, 168 h) is on record?
Answer: 842 nM

Question: Which IC50 ([1]; Homo sapiens, 22Rv1, 168 h) does the source give for `Cn1c(=O)n(C2CCC(=O)NC2=O)c2ccc(C3CCN(C4CCC5(CC4)CN(c4nccc(COc6ccc(C(C)(C)c7cc(Cl)cc(C#N)c7)cc6)n4)C5)CC3)cc21` (stereo not drawn) [Compound 122 trifluoroacetate, 3-chloro-5-(2-(4-((2-(7-(4-(1-(2,6-dioxopiperidin-3-yl)-3-methyl-2-oxo-2,3-dihydro-1H-benzo[d]imidazol-5-yl)piperidin-1-yl)-2-azaspiro[3.5]nonan-2-yl)pyrimidin-4-yl)methoxy)phenyl)propan-2-yl)benzonitrile] here?
Answer: 1010 nM

Question: With `COc1c(Cl)cc(C(C)(C)c2ccc(OCc3ccnc(N4CCC(CN5CCC(C6CCN(c7cc8c(cc7F)n(C7CCC(=O)NC7=O)c(=O)n8C)CC6)CC5)CC4)n3)cc2)cc1C#N` (stereo not drawn) [Compound 123 trifluoroacetate, 3-chloro-5-(2-(4-((2-(4-((1′-(1-(2,6-dioxopiperidin-3-yl)-6-fluoro-3-methyl-2-oxo-2,3-dihydro-1H-benzo[d]imidazol-5-yl)-[4,4′-bipiperidin]-1-yl)methyl)piperidin-1-yl)pyrimidin-4-yl)methoxy)phenyl)propan-2-yl)-2-methoxybenzonitrile] as the molecule, how does the IC50 ([1]; Homo sapiens, 22Rv1, 168 h) read?
Answer: 527 nM

Question: And the AUC(0-t) [2]?
Answer: 1190 ± 724 ng·h/mL

Question: For `Cn1c(=O)n(C2CCC(=O)NC2=O)c2cccc(C3CCN(CC4(F)CCN(C5CCN(c6nccc(COc7ccc(C(C)(C)c8cc(Cl)cc(C#N)c8)cc7)n6)CC5)CC4)CC3)c21` (stereo not drawn) [Compound 124 trifluoroacetate, 3-chloro-5-(2-(4-((2-(4-((4-(1-(2,6-dioxopiperidin-3-yl)-3-methyl-2-oxo-2,3-dihydro-1H-benzo[d]imidazol-4-yl)piperidin-1-yl)methyl)-4-fluoro-[1,4′-bipiperidin]-1′-yl)pyrimidin-4-yl)methoxy)phenyl)propan-2-yl)benzonitrile], which IC50 ([1]; Homo sapiens, 22Rv1, 168 h) is on record?
Answer: 576 nM

Question: Which results are given for `CC(Oc1ccc(C(C)(C)c2cc(Cl)cc(C#N)c2)cc1)c1ccnc(N2CCC(CN3CCC(C4CCN(c5cc6c(cc5F)C(=O)N(C5CCC(=O)NC5=O)C6=O)CC4)CC3)CC2)n1` (stereo not drawn) [Compound 127, 3-chloro-5-(2-(4-(1-(2-(4-((1′-(2-(2,6-dioxopiperidin-3-yl)-6-fluoro-1,3-dioxoisoindolin-5-yl)-[4,4′-bipiperidin]-1-yl)methyl)piperidin-1-yl)pyrimidin-4-yl)ethoxy)phenyl)propan-2-yl)benzonitrile]?
Answer: IC50 [1]: 549 nM; AUC(0-t) [2]: 1860 ± 185 ng·h/mL

Question: With `CC(C)(c1ccc(OCc2ccnc(N3CCC4(CC3)CCN(C3CC5(CCN(c6ccc7c(c6)C(=O)N(C6CCC(=O)NC6=O)C7=O)CC5)C3)CC4)n2)cc1)c1cc(Cl)cc(C#N)c1` (stereo not drawn) [Compound 128, 3-chloro-5-(2-(4-((2-(9-(7-(2-(2,6-dioxopiperidin-3-yl)-1,3-dioxoisoindolin-5-yl)-7-azaspiro[3.5]nonan-2-yl)-3,9-diazaspiro[5.5]undecan-3-yl)pyrimidin-4-yl)methoxy)phenyl)propan-2-yl)benzonitrile] as the molecule, how does the IC50 [1] read?
Answer: 132 nM

Question: What about the AUC(0-t) [2] of the same molecule?
Answer: 604 ± 149 ng·h/mL
